Reference: paper PMC7859440, “Transporter Gene Regulation in Sandwich Cultured Human Hepatocytes Through the Activation of Constitutive Androstane Receptor (CAR) or Aryl Hydrocarbon Receptor (AhR)” (Frontiers in Pharmacology, 2021)
“And” between values parts separate entries of the source, which are not always exact repeats. Equal entries are not always repeated.

Columns and labels:
UGT1A1 = experiment: gene induction in sandwich-cultured human hepatocytes (qRT-PCR)
Protocol: (§1) Cryopreserved human hepatocytes were quickly thawed at 37°C and then transferred into hepatocyte thawing medium. Cells were pelleted at 100 × g for 10 min and then resuspended in hepatocyte complete plating medium (CP medium). The cells were then seeded at 65,000 cells per well in 96-well collagen I coated plates. After cell attachment (4–6 h post-seeding), CP medium was exchanged for ice-cold complete incubation medium (HI medium) containing BD Matrigel™ at the concentration of 0.25 mg/ml. The cells were then incubated overnight at 37°C in a humidified 5% CO2 incubator. […] Cell death or loss of adhesion of hepatocytes during or after treatment were examined by microscopy.
(§2) A RNeasy 96 Kit (Qiagen) was used to extract the total cellular RNA from sandwich cultured hepatocytes in 96-well plates following the manufacturer's instructions. A total volume of 200 μL RNA was obtained via the column elution provided in the RNeasy kit. Five μL RNA extraction was mixed with TaqMan® Fast Virus 1-Step Master Mix (Life Technologies) in a final reaction volume of 20 μL and qRT-PCR was achieved using a QuantStudio 6 Flex Real-Time PCR System (Life Technologies), following the manufacturer's instructions. β-actin mRNA expression in the SCHH was used as a house-keeping gene for the normalization of target gene expressions. The mRNA levels in SCHH treated with AhR or CAR activators were expressed by a fold change, compared to the gene expressions without the treatment. The 2^−ΔΔCt method ([Livak and Schmittgen, 2001]) was used to analyze the relative changes in gene expression, where the Ct is the cycle number at which the fluorescence in the reaction crosses the preset arbitrary threshold; the ΔCt represents the difference between the Ct target and reference and the ΔΔCt is the difference between the ΔCt of the test and the ΔCt of the preassigned control. Gene expression for each condition is expressed as a fold-change of mean ± standard deviation (SD) from three independent donors (each performed in triplicate). All primer and probe sets were purchased from Life Technologies (Table 2). When concentration-dependent induction observed, the in vitro induction mRNA data were fitted using the sigmoid 3-parameter equation in GraphPad Prism (La Jolla, CA) to estimate the in vitro concentration of inducer that produced half the maximum induction values (EC50).

SLC16A1 (MCT1) = experiment: as above; type: cell-based; conditions: SCHH, 72 h; TCDD 50 nM, OP 50 µM, CITCO 5 µM, PB 1,000 µM (highest conc.); mean ± SD, three donors
SLC22A9 (OAT7) = experiment: as above; type: cell-based; conditions: SCHH, 72 h; TCDD 50 nM, OP 50 µM, CITCO 5 µM, PB 1,000 µM (highest conc.); mean ± SD, three donors
SLC15A1 (PEPT1) = experiment: as above; type: cell-based; conditions: SCHH, 72 h; TCDD 50 nM, OP 50 µM, CITCO 5 µM, PB 1,000 µM (highest conc.); mean ± SD, three donors
CYP2C9 = conditions: SCHH, 72 h; TCDD 50 nM, OP 50 µM, CITCO 5 µM, PB 1,000 µM (highest conc.); mean ± SD, three donors
Protocol: as §1
A RNeasy 96 Kit (Qiagen) was used to extract the total cellular RNA from sandwich cultured hepatocytes in 96-well plates following the manufacturer's instructions. […] The 2^−ΔΔCt method ([Livak and Schmittgen, 2001]) was used to analyze the relative changes in gene expression, where the Ct is the cycle number at which the fluorescence in the reaction crosses the preset arbitrary threshold; the ΔCt represents the difference between the Ct target and reference and the ΔΔCt is the difference between the ΔCt of the test and the ΔCt of the preassigned control. Gene expression for each condition is expressed as a fold-change of mean ± standard deviation (SD) from three independent donors (each performed in triplicate). […]

SLC29A1 (ENT1) = experiment: gene induction in sandwich-cultured human hepatocytes (qRT-PCR); type: cell-based; conditions: SCHH, 72 h; TCDD 50 nM, OP 50 µM, CITCO 5 µM, PB 1,000 µM (highest conc.); mean ± SD, three donors
CYP1A1 = experiment: in vitro
Protocol: as §1
as §2, with “When concentration-dependent induction observed, the in vitro induction mRNA data were fitted using the sigmoid 3-parameter equation in GraphPad Prism (La Jolla, CA) to estimate the in vitro concentration of inducer that produced half the maximum induction values (EC50).” left out

SLC22A5 (OCTN2) = experiment: gene induction in sandwich-cultured human hepatocytes (qRT-PCR); type: cell-based; conditions: SCHH, 72 h; TCDD 50 nM, OP 50 µM, CITCO 5 µM, PB 1,000 µM (highest conc.); mean ± SD, three donors
CYP3A4 = experiment: in vitro; conditions: greater than 50% reduction, in only two donors among three lots of hepatocytes
Protocol: as §1
as §2, with “The 2^−ΔΔCt method ([Livak and Schmittgen, 2001]) was used to analyze the relative changes in gene expression, where the Ct is the cycle number at which the fluorescence in the reaction crosses the preset arbitrary threshold; the ΔCt represents the difference between the Ct target and reference and the ΔΔCt is the difference between the ΔCt of the test and the ΔCt of the preassigned control.” left out

SLCO1B3 (OATP1B3) = experiment: gene induction in sandwich-cultured human hepatocytes (qRT-PCR); type: cell-based; conditions: SCHH, 72 h; TCDD 50 nM, OP 50 µM, CITCO 5 µM, PB 1,000 µM (highest conc.); mean ± SD, three donors
Protocol: as §1, §2

ABCC6 (MRP6) = experiment: as above; type: cell-based; conditions: SCHH, 72 h; TCDD 50 nM, OP 50 µM, CITCO 5 µM, PB 1,000 µM (highest conc.); mean ± SD, three donors
Protocol: as §1, §2

SLC22A1 (OCT1) = experiment: as above; type: cell-based; conditions: SCHH, 72 h; TCDD 50 nM, OP 50 µM, CITCO 5 µM, PB 1,000 µM (highest conc.); mean ± SD, three donors
Protocol: as §1, §2

ABCC5 (MRP5) = experiment: as above; type: cell-based; conditions: SCHH, 72 h; TCDD 50 nM, OP 50 µM, CITCO 5 µM, PB 1,000 µM (highest conc.); mean ± SD, three donors
Protocol: as §1, §2

ABCC4 (MRP4) = experiment: as above; type: cell-based; conditions: SCHH, 72 h; TCDD 50 nM, OP 50 µM, CITCO 5 µM, PB 1,000 µM (highest conc.); mean ± SD, three donors
Protocol: as §1, §2

ABCC3 (MRP3) = experiment: as above; type: cell-based; conditions: SCHH, 72 h; TCDD 50 nM, OP 50 µM, CITCO 5 µM, PB 1,000 µM (highest conc.); mean ± SD, three donors
Protocol: as §1, §2

SLC47A1 (MATE1) = experiment: as above; type: cell-based; conditions: SCHH, 72 h; TCDD 50 nM, OP 50 µM, CITCO 5 µM, PB 1,000 µM (highest conc.); mean ± SD, three donors
Protocol: as §1, §2

ABCB1 (MDR1) = experiment: as above; type: cell-based; conditions: SCHH, 72 h; TCDD 50 nM, OP 50 µM, CITCO 5 µM, PB 1,000 µM (highest conc.); mean ± SD, three donors
Protocol: as §1, §2

SLCO1B1 (OATP1B1) = experiment: as above; type: cell-based; conditions: SCHH, 72 h; TCDD 50 nM, OP 50 µM, CITCO 5 µM, PB 1,000 µM (highest conc.); mean ± SD, three donors
Protocol: as §1, §2

SLCO2B1 (OATP2B1) = experiment: as above; type: cell-based; conditions: SCHH, 72 h; TCDD 50 nM, OP 50 µM, CITCO 5 µM, PB 1,000 µM (highest conc.); mean ± SD, three donors
Protocol: as §1, §2

ABCB11 (BSEP) = experiment: as above; type: cell-based; conditions: SCHH, 72 h; TCDD 50 nM, OP 50 µM, CITCO 5 µM, PB 1,000 µM (highest conc.); mean ± SD, three donors
Protocol: as §1, §2

SLCO4C1 (OATP4C1) = experiment: as above; type: cell-based; conditions: SCHH, 72 h; TCDD 50 nM, OP 50 µM, CITCO 5 µM, PB 1,000 µM (highest conc.); mean ± SD, three donors
Protocol: as §1, §2

ABCC2 (MRP2) = experiment: as above; type: cell-based; conditions: SCHH, 72 h; TCDD 50 nM, OP 50 µM, CITCO 5 µM, PB 1,000 µM (highest conc.); mean ± SD, three donors
Protocol: as §1, §2

SLC10A1 (NTCP) = experiment: as above; type: cell-based; conditions: SCHH
Protocol: A RNeasy 96 Kit (Qiagen) was used to extract the total cellular RNA from sandwich cultured hepatocytes in 96-well plates following the manufacturer's instructions. A total volume of 200 μL RNA was obtained via the column elution provided in the RNeasy kit. Five μL RNA extraction was mixed with TaqMan® Fast Virus 1-Step Master Mix (Life Technologies) in a final reaction volume of 20 μL and qRT-PCR was achieved using a QuantStudio 6 Flex Real-Time PCR System (Life Technologies), following the manufacturer's instructions. β-actin mRNA expression in the SCHH was used as a house-keeping gene for the normalization of target gene expressions. The mRNA levels in SCHH treated with AhR or CAR activators were expressed by a fold change, compared to the gene expressions without the treatment. The 2^−ΔΔCt method ([Livak and Schmittgen, 2001]) was used to analyze the relative changes in gene expression, where the Ct is the cycle number at which the fluorescence in the reaction crosses the preset arbitrary threshold; the ΔCt represents the difference between the Ct target and reference and the ΔΔCt is the difference between the ΔCt of the test and the ΔCt of the preassigned control. Gene expression for each condition is expressed as a fold-change of mean ± standard deviation (SD) from three independent donors (each performed in triplicate). […] When concentration-dependent induction observed, the in vitro induction mRNA data were fitted using the sigmoid 3-parameter equation in GraphPad Prism (La Jolla, CA) to estimate the in vitro concentration of inducer that produced half the maximum induction values (EC50).

SLC51B (OSTβ) = experiment: as above; type: cell-based; conditions: SCHH, 72 h; TCDD 50 nM, OP 50 µM, CITCO 5 µM, PB 1,000 µM (highest conc.); mean ± SD, three donors
SLC22A7 (OAT2) = experiment: as above; type: cell-based; conditions: SCHH, 72 h; TCDD 50 nM, OP 50 µM, CITCO 5 µM, PB 1,000 µM (highest conc.); mean ± SD, three donors
SLC29A2 (ENT2) = experiment: as above; type: cell-based; conditions: SCHH, 72 h; TCDD 50 nM, OP 50 µM, CITCO 5 µM, PB 1,000 µM (highest conc.); mean ± SD, three donors
SLC51A (OSTα) = experiment: as above; type: cell-based; conditions: SCHH, 72 h; TCDD 50 nM, OP 50 µM, CITCO 5 µM, PB 1,000 µM (highest conc.); mean ± SD, three donors
[1] = SCHH, 72 h, TCDD 50 nM, OP 50 µM, CITCO 5 µM, PB 1,000 µM (highest conc.), mean ± SD, three donors

Clc1cc2c(cc1Cl)Oc1cc(Cl)c(Cl)cc1O2 [TCDD, 2,3,7,8-tetrachlorodibenzo-p-dioxin]
UGT1A1 mRNA fold change (UGT1A1; [1]): 4.3 fold and 4.3 ± 1.5 fold | EC50 at 72 h (UGT1A1; human): 1.56 ± 0.4 nM | SLC16A1 (MCT1) mRNA fold change (SLC16A1 (MCT1)): 1.0 ± 0.2 fold | SLC22A9 (OAT7) mRNA fold change (SLC22A9 (OAT7)): 0.9 ± 0.2 fold | SLC15A1 (PEPT1) mRNA fold change (SLC15A1 (PEPT1)): 1.2 ± 0.3 fold | CYP2C9 mRNA fold change (CYP2C9): 0.8 ± 0.3 fold | SLC29A1 (ENT1) mRNA fold change (SLC29A1 (ENT1)): 0.9 ± 0.4 fold | CYP1A1 mRNA fold change (CYP1A1; [1]): 38 fold and 38.1 ± 19.2 fold | EC50 at 72 h (CYP1A1; human): 0.5 ± 0.11 nM | SLC22A5 (OCTN2) mRNA fold change (SLC22A5 (OCTN2)): 1.1 ± 0.2 fold | CYP3A4 mRNA fold change in single donors (CYP3A4): < 0.5 fold | SLCO1B3 (OATP1B3) mRNA fold change (SLCO1B3 (OATP1B3)): 0.8 ± 0.5 fold | ABCC6 (MRP6) mRNA fold change (ABCC6 (MRP6)): 0.8 ± 0.2 fold | SLC22A1 (OCT1) mRNA fold change (SLC22A1 (OCT1)): 0.7 ± 0.3 fold | ABCC5 (MRP5) mRNA fold change (ABCC5 (MRP5)): 0.9 ± 0.3 fold | ABCC4 (MRP4) mRNA fold change (ABCC4 (MRP4)): 0.7 ± 0.2 fold | ABCC3 (MRP3) mRNA fold change (ABCC3 (MRP3)): 1.0 ± 0.2 fold | SLC47A1 (MATE1) mRNA fold change (SLC47A1 (MATE1)): 0.9 ± 0.3 fold | ABCB1 (MDR1) mRNA fold change (ABCB1 (MDR1)): 1.0 ± 0.3 fold | SLCO1B1 (OATP1B1) mRNA fold change (SLCO1B1 (OATP1B1)): 1.0 ± 0.4 fold | SLCO2B1 (OATP2B1) mRNA fold change (SLCO2B1 (OATP2B1)): 1.1 ± 0.4 fold | ABCB11 (BSEP) mRNA fold change (ABCB11 (BSEP)): 0.7 ± 0.3 fold | SLCO4C1 (OATP4C1) mRNA fold change (SLCO4C1 (OATP4C1)): 0.8 ± 0.3 fold | ABCC2 (MRP2) mRNA fold change (ABCC2 (MRP2)): 0.9 ± 0.3 fold | SLC10A1 (NTCP) mRNA fold change (SLC10A1 (NTCP); 72 h, TCDD 50 nM, OP 50 µM, CITCO 5 µM, PB 1,000 µM (highest conc.), mean ± SD, three donors): 0.5 ± 0.2 fold | SLC10A1 gene suppression (reduction) (SLC10A1 (NTCP); 3 days, highest concentration treated): about 2 fold | SLC51B (OSTβ) mRNA fold change (SLC51B (OSTβ)): 1.6 ± 0.3 fold | SLC22A7 (OAT2) mRNA fold change (SLC22A7 (OAT2)): 0.8 ± 0.2 fold | SLC29A2 (ENT2) mRNA fold change (SLC29A2 (ENT2)): 1.0 ± 0.2 fold | SLC51A (OSTα) mRNA fold change (SLC51A (OSTα)): 1.5 ± 0.3 fold
